From patent US9238011B2, “Compositions, methods and kits for therapeutic treatment with wet spun microstructures” (Brown University, priority 2012, dated 2016) come the findings set out here.

The data set in a line: Solubility of DXM in the 6:1 (v/v) DCM to THF spin dope co-solvent. The settings on record: 6:1 (v/v) DCM to THF co-solvent (spin dope), organic solvent or mixture; 6:1 (v/v) DCM to THF with PLLA; read-out: maximum solubility in co-solvent solution. In kind it is physicochemical. How it is done: PLLA (7.5% w/v), DXM-loaded (1.0%, 2.4%, 4.8% w/w) and unloaded (0% w/w) microfibers were wet spun by phase inversion. PLLA (526.9±0.3 mg) was dissolved in a co-solvent ratio of 6:1 (v/v) DCM to THF. […] The addition of THF was necessary to increase DXM solubility within the spin dope. The polymer/drug solution was loaded into a 5 mL syringe fitted with a 22-gauge spinneret and placed in a syringe pump with a solution flow rate of 0.06 mL/min. […] A rotating mandrel placed above the spin bath was used to collect microfibers for further analysis. Each formulation in Examples herein was characterized from multiple regions of meter-long microfiber bundles spun at the same time from one spin dope solution.

SMILES strings stand for the structures. ≈ marks a conversion by molar mass, not a printed value.

As to `C[C@@H]1C[C@H]2[C@@H]3CCC4=CC(=O)C=C[C@]4(C)[C@@]3(F)[C@@H](O)C[C@]2(C)[C@@]1(O)C(=O)CO` [DXM, Dexamethasone], the solubility (as a rule, the concentration that dissolves in the medium under given conditions) was approximately 3600 µg/mL (≈ 9.17 mM).
